Several values for one entry are separate records, joined by “and”; a condition that tells them apart may be missing. Equal entries are not always repeated.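 These data come from cells grown in 96-well plates and exposed to compound for 48 hours at five concentrations. GI50 is the concentration that inhibits growth by half. TGI denotes the concentration required for complete inhibition of growth.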 A value given as a limit tells only on which side of the number the result lay.

Our source for the TGI and GI50 values is PubChem BioAssay (NCI).

Among the test systems are CAKI-1 renal; CCRF-CEM leukemia; COLO 205 colon; EKVX NSCLC; HCC-2998 colon; LOX IMVI melanoma; OVCAR-8 ovarian; RXF 393 renal; SR leukemia; UACC-257 melanoma.
Common to all, as to test: NCI tumour cell line growth inhibition, 48 h

For `COC(=O)C(CC(=O)Nc1ccc(C)cc1)C(=O)C(=O)Nc1ccccc1C(C)C` (stereo not given), the TGI with CAKI-1 renal, in the test on CCRF-CEM leukemia, in the test on COLO 205 colon, in the test on EKVX NSCLC, in the test on HCC-2998 colon and with LOX IMVI melanoma was above 100 µM throughout. Moreover, the TGI with OVCAR-8 ovarian, in the test with RXF 393 renal, in the test on SR leukemia and with UACC-257 melanoma was above 100 µM each time.
Regarding `Cc1sc2nc3c4ccccc4c(NCCCN(C)C)nn3c(=O)c2c1C`, the GI50 was 8.87 µM with CAKI-1 renal; 6.13 µM in the test on CCRF-CEM leukemia; 1.43 µM in the test on COLO 205 colon; 15.7 µM in the test with EKVX NSCLC; 7.88 µM with HCC-2998 colon; 2 µM in the test with LOX IMVI melanoma. In addition, the GI50 with OVCAR-8 ovarian is 11 µM; in the test on RXF 393 renal, 5.2 µM; in the test on SR leukemia, 1.33 µM; in the test with UACC-257 melanoma it was 2.22 µM. For the same compound, the TGI with CAKI-1 renal was 23.5 µM; in the test with CCRF-CEM leukemia it was 17.2 µM; in the test with COLO 205 colon, 2.79 µM; with EKVX NSCLC it was 35.8 µM; in the test on HCC-2998 colon it was 20.7 µM; with LOX IMVI melanoma it was 6.85 µM. For the same compound, the TGI came to 27.9 µM with OVCAR-8 ovarian, 19.8 µM with RXF 393 renal, 3.52 µM with SR leukemia and 4.79 µM in the test on UACC-257 melanoma.
For the compound `C=CC(=O)Nc1cc2c(Nc3ccc(F)c(Cl)c3)ncnc2cc1OCCCN1CCOCC1`, the TGI is 2.67 µM and > 10 µM in the test with CAKI-1 renal; above 27.4 µM in the test on CCRF-CEM leukemia; 7.32 µM and > 10 µM with COLO 205 colon; 12.4 µM and > 10 µM in the test on EKVX NSCLC; 3.46 µM and > 6.08 µM in the test with HCC-2998 colon; 2.7 µM and 3.32 µM with LOX IMVI melanoma. In addition, the TGI in the test with OVCAR-8 ovarian was 6.67 µM and > 10 µM; in the test with RXF 393 renal, 2.82 µM and 6.23 µM; in the test on SR leukemia, > 21 µM and 6.51 µM; in the test with UACC-257 melanoma, 12.8 µM and > 10 µM. For the same compound, the GI50 in the test with CCRF-CEM leukemia was 2.19 µM and 2.63 µM; with COLO 205 colon, 2.42 µM and 4.59 µM; with EKVX NSCLC it was 0.0262 µM and 0.0367 µM; in the test with HCC-2998 colon, 1.82 µM and 2.67 µM; in the test with LOX IMVI melanoma, 1.29 µM and 1.69 µM; in the test with OVCAR-8 ovarian it was 1.77 µM and 2.54 µM. Moreover, the GI50 with RXF 393 renal was 1.32 µM and 1.88 µM; with SR leukemia it was 1.72 µM and 2.3 µM; with UACC-257 melanoma it was 3.42 µM and 9.15 µM.
Regarding `COC1C2C=CC(C2)[C@H]1[N+](=O)[O-]` (stereo not given in full), the TGI with CAKI-1 renal, with CCRF-CEM leukemia, in the test on COLO 205 colon, in the test on EKVX NSCLC, in the test with HCC-2998 colon and in the test on LOX IMVI melanoma was above 100 µM in each case. The TGI with OVCAR-8 ovarian, with RXF 393 renal, in the test with SR leukemia and in the test on UACC-257 melanoma was above 100 µM each time.
`O=C(O)c1ccc2c(c1)CCCC(c1ccc(Cl)cc1Cl)=C2c1ccc(O[C@H]2CCN(CCCF)C2)cc1`: the GI50 was 11.5 µM in the test with CAKI-1 renal; 10.8 µM in the test with CCRF-CEM leukemia; 14.9 µM with COLO 205 colon; 10.7 µM in the test with EKVX NSCLC; 13.6 µM in the test with HCC-2998 colon; 11 µM in the test on LOX IMVI melanoma. The GI50 in the test on OVCAR-8 ovarian was 13.5 µM; with RXF 393 renal, 3.38 µM; in the test on SR leukemia it was 4.87 µM; in the test with UACC-257 melanoma it was 14.1 µM. Besides, the TGI in the test with CAKI-1 renal is 24 µM; in the test with CCRF-CEM leukemia, 27.6 µM; with COLO 205 colon it was 33.7 µM; in the test with EKVX NSCLC it was 25.3 µM; with HCC-2998 colon, 27.9 µM; with LOX IMVI melanoma it was 26.1 µM. Besides, the TGI with OVCAR-8 ovarian amounted to 33.7 µM; in the test with RXF 393 renal, 17 µM; with SR leukemia, 20.7 µM; in the test on UACC-257 melanoma it was 30 µM.
On to `COc1cc2c(=O)n(CCN)c3c4cc5c(cc4ccc3c2cc1OC)OCO5`, for which the GI50 is 0.382 µM in the test on CAKI-1 renal; 0.182 µM with CCRF-CEM leukemia; 0.352 µM in the test with COLO 205 colon; 1.47 µM with EKVX NSCLC; 1.08 µM with HCC-2998 colon; 0.362 µM with LOX IMVI melanoma. For the same compound, the GI50 is 0.988 µM in the test with OVCAR-8 ovarian, 1.02 µM in the test with RXF 393 renal, 0.0907 µM with SR leukemia and 1.92 µM with UACC-257 melanoma. The TGI in the test on CAKI-1 renal was 5.94 µM; in the test on COLO 205 colon, 2.11 µM; with EKVX NSCLC, 3.51 µM; in the test with HCC-2998 colon, 2.47 µM; in the test on LOX IMVI melanoma, 1.78 µM; in the test on OVCAR-8 ovarian, 3.91 µM. For the same compound, the TGI in the test on RXF 393 renal is 2.56 µM; with SR leukemia, 1.03 µM; with UACC-257 melanoma it was 13.3 µM.
Consider `CN1CC[C@]2(C)c3ccc(O)cc3CC3CCCC1C32C` (stereo not given in full), for which the TGI with CAKI-1 renal, with CCRF-CEM leukemia, in the test with COLO 205 colon, in the test with EKVX NSCLC, with HCC-2998 colon and with LOX IMVI melanoma was above 100 µM each time. For the same compound, the TGI in the test on OVCAR-8 ovarian, with RXF 393 renal, with SR leukemia and in the test on UACC-257 melanoma was above 100 µM each time.
As to `COc1cc(/C=C2\C(=O)Nc3ccc(N(C)C)cc32)cc(OC)c1OC`, the GI50 with CAKI-1 renal was 5.78 µM; with CCRF-CEM leukemia, 2.28 µM; in the test on COLO 205 colon, 1.89 µM; with EKVX NSCLC it was 5.25 µM; in the test on HCC-2998 colon it was 8.46 µM; in the test on LOX IMVI melanoma, 3.2 µM. In addition, the GI50 with OVCAR-8 ovarian was 4.46 µM; in the test on RXF 393 renal, 0.24 µM; in the test with SR leukemia, 0.34 µM; with UACC-257 melanoma, 6.73 µM. The TGI in the test on CAKI-1 renal is above 80.5 µM; with CCRF-CEM leukemia it was 10.1 µM; in the test on COLO 205 colon, 4.73 µM; with EKVX NSCLC, above 100 µM; in the test on HCC-2998 colon, 46.4 µM; in the test on LOX IMVI melanoma, 18.6 µM. Moreover, the TGI with OVCAR-8 ovarian is above 79.4 µM; in the test on RXF 393 renal, 1.28 µM; in the test on SR leukemia it was 2.4 µM; in the test with UACC-257 melanoma, above 100 µM.
For the compound `COc1ccccc1/C=C/C(=O)c1ccccc1`, the GI50 in the test on CAKI-1 renal was 6.3 µM; in the test with CCRF-CEM leukemia, 2.87 µM; in the test on COLO 205 colon, 16.9 µM; in the test with EKVX NSCLC, 11 µM; in the test on HCC-2998 colon, 17 µM; in the test on LOX IMVI melanoma, 2.06 µM. The GI50 was 11.2 µM in the test with OVCAR-8 ovarian, 5.94 µM with RXF 393 renal, 1.77 µM with SR leukemia and 13.8 µM in the test with UACC-257 melanoma. Further, the TGI stood at 18.6 µM with CAKI-1 renal; 11.5 µM in the test on CCRF-CEM leukemia; 42.1 µM with COLO 205 colon; 28.5 µM with EKVX NSCLC; 31.8 µM in the test with HCC-2998 colon; 5.07 µM in the test with LOX IMVI melanoma. Further, the results for the TGI with OVCAR-8 ovarian, with RXF 393 renal and in the test on UACC-257 melanoma were 28 µM, 16.1 µM and 27.4 µM, respectively.
Consider `Cc1ccc(-c2cc(-c3ccco3)c(C#N)c(=O)n2C2OC(OC(=O)c3ccccc3)C(OC(=O)c3ccccc3)C2OC(=O)c2ccccc2)cc1` (stereo not given), for which the TGI with CAKI-1 renal, with CCRF-CEM leukemia, in the test with EKVX NSCLC, with HCC-2998 colon, with LOX IMVI melanoma and with OVCAR-8 ovarian was above 100 µM in each case. The TGI in the test on RXF 393 renal was 88.4 µM; in the test on SR leukemia, above 100 µM.
For `O=C(N/N=C(/CCN1CCCC1)CC(c1ccccc1)c1c(O)c2ccccc2oc1=O)c1ccncc1` (stereo not given), the TGI in the test on CAKI-1 renal, in the test on CCRF-CEM leukemia, with EKVX NSCLC, with HCC-2998 colon, in the test on LOX IMVI melanoma and in the test on OVCAR-8 ovarian was above 100 µM in each case. Further, the TGI was above 100 µM in the test on RXF 393 renal, 48.6 µM with SR leukemia and above 100 µM in the test with UACC-257 melanoma.
As to `Cc1ccc(-c2csc(NC(=O)CN3CCN(c4cc5c(cc4F)c(=O)c(C(=O)O)cn5C4CC4)CC3)n2)cc1`, the GI50 in the test with CCRF-CEM leukemia is 0.569 µM; with COLO 205 colon, 1.66 µM; with EKVX NSCLC it was 1.53 µM; in the test on HCC-2998 colon, 2.04 µM; in the test with LOX IMVI melanoma it was 0.482 µM; in the test with OVCAR-8 ovarian it was 0.388 µM. Besides, the results for the GI50 in the test on RXF 393 renal, in the test on SR leukemia and in the test with UACC-257 melanoma were 0.633 µM, 0.645 µM and 1.91 µM, respectively. For the same compound, the TGI was above 100 µM in the test with CCRF-CEM leukemia; 3.75 µM in the test with COLO 205 colon; 23.9 µM in the test on EKVX NSCLC; above 100 µM in the test on HCC-2998 colon; 29.2 µM in the test on LOX IMVI melanoma; 11.7 µM in the test on OVCAR-8 ovarian. Besides, the TGI in the test with RXF 393 renal is 17.8 µM; in the test with SR leukemia it was 6.87 µM; in the test with UACC-257 melanoma, 6.18 µM.
On to `COc1ccc(C2=NN(C=O)C(c3cccc(Nc4ccnc5cc(Cl)ccc45)c3)C2)cc1` (stereo not given), for which the GI50 in the test with CCRF-CEM leukemia is 2.14 µM; with COLO 205 colon, 2.4 µM; in the test with EKVX NSCLC, 2.8 µM; in the test with HCC-2998 colon, 11.7 µM; with LOX IMVI melanoma it was 2.52 µM; with OVCAR-8 ovarian it was 3.29 µM. For the same compound, the GI50 in the test on RXF 393 renal was 1.66 µM; in the test with SR leukemia, 0.583 µM; in the test on UACC-257 melanoma, 3.06 µM. Moreover, the TGI with CCRF-CEM leukemia is 13.1 µM; with COLO 205 colon, 9.88 µM; in the test with EKVX NSCLC, above 100 µM; in the test on HCC-2998 colon, 94.3 µM; with LOX IMVI melanoma, 12.5 µM; with OVCAR-8 ovarian, 27.6 µM. Besides, the TGI was determined as 7.61 µM in the test with RXF 393 renal, 5.23 µM with SR leukemia and 28.5 µM in the test on UACC-257 melanoma.
